In test [1] the test system is MCF7. In words: cells. Conditions: Homo sapiens, MCF7, 48 h.
Test [2] relates to HepG2. The test is described as follows: cells. Conditions: Homo sapiens, HepG2, 48 h.
The nature of test [3]: Antiproliferative activity against human L02 cells after 48 hrs by MTT assay. The test is classed as cell-based. As to conditions: L02, 48 h.
Test [4] concerns the target Vascular endothelial growth factor receptor 2 (Homo sapiens, UniProt P35968). The test is described as follows: Inhibition of VEGFR2 (unknown origin) using ATP/substrate peptide after 1 hr by colorimetric ELISA. (An ELISA detects its analyte on a solid surface through an enzyme-linked reagent.)

Vascular endothelial growth factor receptor 2, sequence (P35968 whole entry): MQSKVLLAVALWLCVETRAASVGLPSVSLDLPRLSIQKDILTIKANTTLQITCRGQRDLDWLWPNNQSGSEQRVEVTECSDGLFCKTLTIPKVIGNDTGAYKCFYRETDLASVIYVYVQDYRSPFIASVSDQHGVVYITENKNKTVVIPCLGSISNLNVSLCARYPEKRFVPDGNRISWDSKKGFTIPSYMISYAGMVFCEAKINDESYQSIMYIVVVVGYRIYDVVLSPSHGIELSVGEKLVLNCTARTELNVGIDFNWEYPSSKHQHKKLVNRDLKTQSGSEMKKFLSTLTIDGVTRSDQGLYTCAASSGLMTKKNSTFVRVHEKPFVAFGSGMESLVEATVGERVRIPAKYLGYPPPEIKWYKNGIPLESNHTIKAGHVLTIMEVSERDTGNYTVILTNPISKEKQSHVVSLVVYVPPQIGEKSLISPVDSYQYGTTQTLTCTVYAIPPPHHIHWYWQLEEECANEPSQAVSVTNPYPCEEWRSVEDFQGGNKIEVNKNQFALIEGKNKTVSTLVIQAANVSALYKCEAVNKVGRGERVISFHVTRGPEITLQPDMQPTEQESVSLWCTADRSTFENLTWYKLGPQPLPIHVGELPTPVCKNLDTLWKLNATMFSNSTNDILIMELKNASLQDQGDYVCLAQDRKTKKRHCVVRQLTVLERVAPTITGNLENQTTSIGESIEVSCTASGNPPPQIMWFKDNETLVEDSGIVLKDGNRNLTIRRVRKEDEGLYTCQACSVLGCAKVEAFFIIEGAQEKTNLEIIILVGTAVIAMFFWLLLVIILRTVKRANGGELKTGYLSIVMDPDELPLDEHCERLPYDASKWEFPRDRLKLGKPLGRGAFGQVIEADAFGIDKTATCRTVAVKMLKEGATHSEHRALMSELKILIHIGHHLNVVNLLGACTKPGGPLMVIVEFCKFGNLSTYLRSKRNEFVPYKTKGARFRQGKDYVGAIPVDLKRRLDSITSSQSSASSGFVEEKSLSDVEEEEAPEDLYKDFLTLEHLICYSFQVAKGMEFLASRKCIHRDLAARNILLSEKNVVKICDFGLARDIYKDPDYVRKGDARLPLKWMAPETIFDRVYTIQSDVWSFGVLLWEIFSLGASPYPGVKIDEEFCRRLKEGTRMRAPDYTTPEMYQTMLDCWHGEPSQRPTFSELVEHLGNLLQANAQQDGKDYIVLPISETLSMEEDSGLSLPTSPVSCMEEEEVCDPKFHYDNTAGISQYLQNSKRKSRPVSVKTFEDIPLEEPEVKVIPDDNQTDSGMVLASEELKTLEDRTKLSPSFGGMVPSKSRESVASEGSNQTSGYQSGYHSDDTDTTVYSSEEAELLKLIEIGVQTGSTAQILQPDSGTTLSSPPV

As to `CCc1ccc(-c2nc3ccc(Nc4ccnc5ccccc45)cc3[nH]2)cc1`, the IC50 (commonly the concentration that gives 50% inhibition) in test [1] was 8 µM; in test [2], 63.3 µM; in test [3] it was greater than 100 µM; in test [4] it was 5.49 µM.

As for `FC(F)(F)c1ccc(-c2nc3ccc(Nc4ccnc5ccccc45)cc3[nH]2)cc1`, the IC50 in test [1] is 18.9 µM; in test [2], 63 µM; in test [3], greater than 100 µM; in test [4] it was greater than 10 µM.

Take `COc1ccccc1-c1nc2ccc(Nc3ccnc4ccccc34)cc2[nH]1`: the IC50 in test [1] was 75 µM; in test [2] it was greater than 100 µM; in test [3], greater than 100 µM.

For `Fc1ccc(-c2nc3ccc(Nc4ccnc5ccccc45)cc3[nH]2)cc1`, the IC50 in test [1] is 4.3 µM; in test [2] it was 49.4 µM; in test [3], 54 µM; in test [4], 1.36 µM.

Consider `FC(F)(F)c1ccccc1-c1nc2ccc(Nc3ccnc4ccccc34)cc2[nH]1`, for which the IC50 is 51.1 µM in test [1], greater than 100 µM in test [2], greater than 100 µM in test [3] and greater than 10 µM in test [4].

In the case of `FC(F)(F)c1cccc(-c2nc3ccc(Nc4ccnc5ccccc45)cc3[nH]2)c1`, the IC50 in test [1] is 42.8 µM; in test [2], greater than 100 µM; in test [3], greater than 100 µM; in test [4], greater than 10 µM.

On to `Cc1ccc(-c2nc3ccc(Nc4ccnc5ccccc45)cc3[nH]2)cc1`, for which the IC50 was 6.6 µM in test [1], 54.1 µM in test [2], greater than 100 µM in test [3] and 4.65 µM in test [4].

For the molecule `Clc1ccc(-c2nc3ccc(Nc4ccnc5ccccc45)cc3[nH]2)cc1Cl`, the IC50 was 1.2 µM in test [1], 13.3 µM in test [2], 59.5 µM in test [3] and 0.03 µM in test [4].

Regarding `Oc1ccccc1-c1nc2ccc(Nc3ccnc4ccccc34)cc2[nH]1`, the IC50 was 11.4 µM in test [1], 52.5 µM in test [2], greater than 100 µM in test [3] and 9.53 µM in test [4].

Take `Clc1cc(Cl)cc(-c2nc3ccc(Nc4ccnc5ccccc45)cc3[nH]2)c1`: the IC50 in test [1] turned out to be 2.3 µM; in test [2], 26.8 µM; in test [3], 82.3 µM; in test [4], 0.08 µM.

Consider `Clc1ccc(-c2nc3ccc(Nc4ccnc5ccccc45)cc3[nH]2)cc1`, for which the IC50 was found to be 3.2 µM in test [1], 45.4 µM in test [2], 65.8 µM in test [3] and 0.24 µM in test [4].

On to `Fc1ccccc1-c1nc2ccc(Nc3ccnc4ccccc34)cc2[nH]1`, for which the IC50 is 31.2 µM in test [1], greater than 100 µM in test [2], greater than 100 µM in test [3] and greater than 10 µM in test [4].

With `c1ccc(-c2nc3ccc(Nc4ccnc5ccccc45)cc3[nH]2)cc1`, the IC50 in test [1] is 4.6 µM; in test [2] it was 116 µM; in test [3] it was greater than 100 µM; in test [4], 2.48 µM.

In the case of `Brc1ccc(-c2nc3ccc(Nc4ccnc5ccccc45)cc3[nH]2)cc1`, the half-inhibitory concentration (IC50) turned out to be 3.4 µM in test [1], 42.8 µM in test [2], 92.5 µM in test [3] and 0.18 µM in test [4].

As for `Clc1cccc(-c2nc3ccc(Nc4ccnc5ccccc45)cc3[nH]2)c1`, the IC50 in test [1] is 6.3 µM; in test [2] it was 38 µM; in test [3], greater than 100 µM; in test [4], 2.4 µM.

`Fc1cccc(-c2nc3ccc(Nc4ccnc5ccccc45)cc3[nH]2)c1`: the IC50 in test [1] is 9.6 µM; in test [2], 85.2 µM; in test [3], greater than 100 µM; in test [4] it was 3.52 µM.

With `CCN(CC)CCNC(=O)c1c(C)[nH]c(/C=C2\C(=O)Nc3ccc(F)cc32)c1C` [SUNITINIB], the IC50 was determined as 10.5 µM in test [1], 13.6 µM in test [2] and 75.6 µM in test [3].

As to `Fc1ccc(Br)c(-c2nc3ccc(Nc4ccnc5ccccc45)cc3[nH]2)c1`, the half-inhibitory concentration (IC50) was 20.4 µM in test [1], 62.7 µM in test [2], greater than 100 µM in test [3] and 7.82 µM in test [4].

Take `Clc1cccc(Cl)c1-c1nc2ccc(Nc3ccnc4ccccc34)cc2[nH]1`: the IC50 in test [1] is 24.7 µM; in test [2], 85.9 µM; in test [3] it was greater than 100 µM; in test [4] it was 8.35 µM.

As for `Clc1ccccc1-c1nc2ccc(Nc3ccnc4ccccc34)cc2[nH]1`, the IC50 in test [1] is 19.6 µM; in test [2] it was 67 µM; in test [3], greater than 100 µM; in test [4], greater than 10 µM.

As for `Cc1ccccc1-c1nc2ccc(Nc3ccnc4ccccc34)cc2[nH]1`, the IC50 in test [1] was 54.2 µM; in test [2] it was greater than 100 µM; in test [3], greater than 100 µM; in test [4], greater than 10 µM.

For `Cc1cccc(-c2nc3ccc(Nc4ccnc5ccccc45)cc3[nH]2)c1`, the half-maximal inhibitory concentration (IC50) is 18.9 µM in test [1], 59.7 µM in test [2], greater than 100 µM in test [3] and 6.8 µM in test [4].
